The source of these data is paper PMC8945229, “Development and Biological Characterization of a Novel Selective TrkA Agonist with Neuroprotective Properties against Amyloid Toxicity” (Biomedicines, 2022).

One assay concerns the target T1, p75^NTR (Homo sapiens, UniProt P08138).
T1 construct: expressed in transfected cells; host or cells: HEK293T (transient, lipofectamine)
Nature of the assay: p75NTR activation in HEK cells transfected with p75NTR and Traf6 (immunoprecipitation). In kind it is cell-based. The conditions noted are these: 500 nM, 30′. The method, then: (§1) PC12 and HEK293T cells were obtained from LGC Promochem GmbH (Teddington, UK) and cultured under the conditions specified by the manufacturer. NIH3T3 cells were stably transfected with human TrkB plasmid. PC12 cells were grown in DMEM medium (11965084, Gibco, Grand Island, NY, USA) containing 10% Horse Serum (16050122, Gibco, Grand Island, NY, USA), 5% Fetal Bovine Serum (10270106, Gibco, Grand Island, NY, USA), 100 units/mL Penicillin and 0.1 mg/mL Streptomycin (15140122, Gibco, Grand Island, NY, USA) at 5% CO2 and 37 °C. Cells were used between passages 5–20. HEK293T and NIH3T3 cells were grown in the same medium as PC12 cells supplemented with 10% Fetal Bovine Serum and lacking Horse Serum. For transient transfection of HEK293T cells, lipofectamine was used and cells were transfected with human p75^NTR and Traf6 plasmids. To determine the intracellular activity of endogenous secretases, we tagged (tGFP) a truncated mutant (Tm) of APP containing the original amino acids sequence from M516 to N773. This Tm conserves the secretases cleavage sites, clathrin binding site, tau protein binding site, collagen binding site and some glycosylation sites critical for protein localization and intracellular trafficking. The cDNA of the TmAPP gene was amplified by PCR and subcloned into pturbo-GFP vector. […]

The test system of assay [1] is Primary hippocampal neurons. Nature of the assay: TUNEL assay in primary hippocampal neurons treated with oligomeric Aβ. In kind it is cell-based, mouse. To be noted: 5 μM oligomeric Aβ, 500 nM every 24 h, 48 h. The protocol: Primary hippocampal neurons were isolated from E17.5 mouse embryos (C57BL/6J, The Jackson Laboratory, Bar Harbor, ME, USA) as previously described and cultured with Neurobasal medium containing 2% B27, 1X GlutaMax, 10 mM HEPES and 1% PenStrep. Cells were maintained in a humified incubator at 37 °C and 5% CO2. For TUNEL assay, cells were left in culture for 16–18 days and then treated with 5 μM oligomeric Aβ along with ENT-A013 (500 nM, every 24 h) for 48 h. Cells were then fixed with 4% PFA and labelled with TUNEL (F. Hoffmann–La Roche Ltd., Basel, Switzerland, cat# 11684795910) following the manufacturer’s protocol. Subsequently, cells were immunostained against Tuj1 and imaged with confocal microscopy. For synaptic plasticity assay, cells were left in culture for 16–18 days and then treated with 5 μM oligomeric Aβ along with ENT-A013 (500 nM) for 4 h. Cells were then fixed with 4% PFA and immunostained against Tuj1 and Synaptophysin (1:1000, PA1-1043, Invitrogen, Waltham, MA, USA), anti-mouse Alexa fluor 488 (1:1000, A-11029, Invitrogen, Waltham, MA, USA) and anti-rabbit Alexa fluor 546 (1:1000, A10040, Invitrogen, Waltham, MA, USA). Images were acquired using confocal microscopy and the total area of synaptophysin positive puncta was measured and normalized to Tuj1 total area. […]

The target of another assay is T2, TrkB (Homo sapiens, UniProt Q16620).
T2 construct: expressed in transfected cells
T2 sequence (Q16620 32-822): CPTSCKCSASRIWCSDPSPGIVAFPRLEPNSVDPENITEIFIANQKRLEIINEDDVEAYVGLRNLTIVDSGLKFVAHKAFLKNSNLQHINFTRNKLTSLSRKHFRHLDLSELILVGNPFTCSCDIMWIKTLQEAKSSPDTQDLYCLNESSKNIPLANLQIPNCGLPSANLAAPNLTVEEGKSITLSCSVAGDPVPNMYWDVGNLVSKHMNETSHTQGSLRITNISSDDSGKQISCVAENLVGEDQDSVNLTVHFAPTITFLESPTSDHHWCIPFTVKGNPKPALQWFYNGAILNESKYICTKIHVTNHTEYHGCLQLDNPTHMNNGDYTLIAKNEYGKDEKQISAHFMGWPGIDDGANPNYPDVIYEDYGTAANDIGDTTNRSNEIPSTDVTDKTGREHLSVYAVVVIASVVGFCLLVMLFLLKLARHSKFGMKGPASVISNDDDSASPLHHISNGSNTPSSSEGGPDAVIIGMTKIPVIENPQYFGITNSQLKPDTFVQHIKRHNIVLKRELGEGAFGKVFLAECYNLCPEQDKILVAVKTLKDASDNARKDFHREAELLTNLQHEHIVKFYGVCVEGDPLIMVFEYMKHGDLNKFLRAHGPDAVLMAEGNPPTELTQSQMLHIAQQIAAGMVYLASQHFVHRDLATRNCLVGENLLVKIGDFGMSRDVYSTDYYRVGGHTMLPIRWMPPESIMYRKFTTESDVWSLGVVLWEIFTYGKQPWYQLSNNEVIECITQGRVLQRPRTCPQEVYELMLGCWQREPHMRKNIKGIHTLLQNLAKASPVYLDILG
In words: TrkB phosphorylation in NIH-3T3 cells stably transfected with TrkB. It is filed as cell-based. The conditions noted are these: 500 nM, 30′. The protocol:
as §1

T1 sequence (P08138 29-427): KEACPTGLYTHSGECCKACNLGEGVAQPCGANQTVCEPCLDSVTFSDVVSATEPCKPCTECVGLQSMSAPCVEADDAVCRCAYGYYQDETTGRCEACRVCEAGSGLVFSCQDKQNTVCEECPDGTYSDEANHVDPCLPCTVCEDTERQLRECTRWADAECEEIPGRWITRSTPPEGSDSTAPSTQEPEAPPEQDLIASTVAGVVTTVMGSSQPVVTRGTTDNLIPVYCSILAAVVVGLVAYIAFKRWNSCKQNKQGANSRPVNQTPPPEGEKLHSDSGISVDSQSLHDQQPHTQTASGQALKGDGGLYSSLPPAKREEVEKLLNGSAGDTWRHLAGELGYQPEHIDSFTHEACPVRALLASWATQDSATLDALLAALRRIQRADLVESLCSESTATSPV

`CC12CCC(O)CC1=CCC1C2CCC2(C)C1CCC21CC1C=CBr` [ENT-A013, (2′R,3S,17S)-2′-(2-Bromovinyl)-5-Androstene-17,1′-Cyclopropan-3-ol]: the “p75NTR activation (in words)” value on p75^NTR was “does not activate”. Also, the “apoptosis (TUNEL)” value in assay [1] is given as 29.8% ± 2.5%. Moreover, at TrkB, the “TrkB phosphorylation (in words)” value is listed as “did not induce phosphorylation”.
